Experimental data from ChEMBL document CHEMBL1201862, “PubChem BioAssay data set” (2004).
Active and inactive are the calls of the source.

What was measured:
[1] = fluconazole-exposed Candida albicans growth modulators – fluorescence, retest, confirmation (AID 2467); assay type: functional, cell-based
[2] = NIH-3T3 fibroblast cytotoxicity, dose response, cytotoxicity control, cell-based, fluorescence, Alamar Blue, secondary assay (AID 2327); assay type: functional;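 note: NIH-3T3 mouse fibroblasts cultured with fluconazole at 8 µg/mL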
[3] = target: T1, Short transient receptor potential channel 4 (Mus musculus, UniProt Q9QUQ5); test: calcium entry via TRPC4 opening agents – cell-based, HEK293 TRPC4/mu-opioid, Fluo-4 calcium, dose response (AID 434937); assay type: functional
T1 sequence (Q9QUQ5 whole entry): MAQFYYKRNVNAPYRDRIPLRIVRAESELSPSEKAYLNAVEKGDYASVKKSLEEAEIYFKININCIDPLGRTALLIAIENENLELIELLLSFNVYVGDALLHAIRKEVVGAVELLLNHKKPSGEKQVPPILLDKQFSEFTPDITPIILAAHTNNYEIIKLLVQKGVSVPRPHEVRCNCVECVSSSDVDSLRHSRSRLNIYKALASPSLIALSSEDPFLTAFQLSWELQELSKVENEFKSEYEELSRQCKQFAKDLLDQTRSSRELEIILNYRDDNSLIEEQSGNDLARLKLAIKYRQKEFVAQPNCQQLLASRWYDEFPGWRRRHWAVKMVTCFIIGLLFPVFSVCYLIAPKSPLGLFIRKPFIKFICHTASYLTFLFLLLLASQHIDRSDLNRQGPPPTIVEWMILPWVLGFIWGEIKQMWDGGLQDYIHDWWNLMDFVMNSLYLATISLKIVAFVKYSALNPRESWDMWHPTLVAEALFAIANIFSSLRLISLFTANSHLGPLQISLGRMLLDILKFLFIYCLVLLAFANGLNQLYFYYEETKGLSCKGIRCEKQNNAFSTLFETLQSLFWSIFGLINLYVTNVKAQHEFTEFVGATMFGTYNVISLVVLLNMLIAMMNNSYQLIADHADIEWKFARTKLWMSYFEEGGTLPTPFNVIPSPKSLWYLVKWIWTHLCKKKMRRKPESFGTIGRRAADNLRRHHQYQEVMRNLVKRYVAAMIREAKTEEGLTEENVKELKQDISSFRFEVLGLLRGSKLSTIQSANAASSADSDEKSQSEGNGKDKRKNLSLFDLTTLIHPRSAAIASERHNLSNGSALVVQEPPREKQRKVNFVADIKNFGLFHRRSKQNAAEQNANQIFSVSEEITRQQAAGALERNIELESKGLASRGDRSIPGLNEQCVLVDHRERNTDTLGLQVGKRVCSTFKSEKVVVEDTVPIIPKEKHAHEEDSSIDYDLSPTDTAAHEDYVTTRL

[4] = target: T2, High affinity choline transporter 1 (Homo sapiens, UniProt Q9GZV3); test: human choline transporter blockers, potency – cell-based, 10-point CRC, membrane potential dye, dose response (AID 588401); assay type: functional;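 note: membrane potential dye fluorescence of choline-evoked depolarization via CHT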
T2 sequence (Q9GZV3 whole entry): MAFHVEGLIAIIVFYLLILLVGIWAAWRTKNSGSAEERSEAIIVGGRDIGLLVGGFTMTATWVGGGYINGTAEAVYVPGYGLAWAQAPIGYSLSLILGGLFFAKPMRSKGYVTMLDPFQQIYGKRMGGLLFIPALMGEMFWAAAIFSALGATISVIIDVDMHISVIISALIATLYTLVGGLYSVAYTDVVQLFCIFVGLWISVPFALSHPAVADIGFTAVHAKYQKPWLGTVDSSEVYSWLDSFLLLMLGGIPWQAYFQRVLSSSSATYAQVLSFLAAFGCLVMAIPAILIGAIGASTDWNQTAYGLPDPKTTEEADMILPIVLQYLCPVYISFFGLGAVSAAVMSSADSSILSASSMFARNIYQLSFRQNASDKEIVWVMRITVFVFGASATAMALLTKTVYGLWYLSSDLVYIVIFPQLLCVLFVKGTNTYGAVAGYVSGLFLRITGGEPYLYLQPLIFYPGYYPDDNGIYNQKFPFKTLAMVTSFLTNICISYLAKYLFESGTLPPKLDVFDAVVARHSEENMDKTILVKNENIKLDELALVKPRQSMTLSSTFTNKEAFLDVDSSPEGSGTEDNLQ

[5] = target: T2, High affinity choline transporter 1; test: human choline transporter blockers, potency – cell-based, 5-point CRC, membrane potential dye, dose response (AID 504840); assay type: functional
[6] = target: T2, High affinity choline transporter 1; test: human choline transporter radiolabel uptake blockers – cell-based, 3H-choline uptake, CHT LV-AA trafficking mutant, CRC, dose response (AID 602208); assay type: functional
Protein Wnt-3a = Protein Wnt-3a (Mus musculus, UniProt P27467); test: antagonism of Wnt3a pathway luciferase reporter – Wnt-LIGHT cells, luminescence, selectivity assay for Gli-SUFU antagonist project, dose response (AID 651570); assay type: functional; details: read-out: IC50_Mean;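 note: Wnt-LIGHT reporter cells stimulated with conditioned medium from Wnt3a-producing cells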
Chain of Protein Wnt-3a (P27467 whole entry): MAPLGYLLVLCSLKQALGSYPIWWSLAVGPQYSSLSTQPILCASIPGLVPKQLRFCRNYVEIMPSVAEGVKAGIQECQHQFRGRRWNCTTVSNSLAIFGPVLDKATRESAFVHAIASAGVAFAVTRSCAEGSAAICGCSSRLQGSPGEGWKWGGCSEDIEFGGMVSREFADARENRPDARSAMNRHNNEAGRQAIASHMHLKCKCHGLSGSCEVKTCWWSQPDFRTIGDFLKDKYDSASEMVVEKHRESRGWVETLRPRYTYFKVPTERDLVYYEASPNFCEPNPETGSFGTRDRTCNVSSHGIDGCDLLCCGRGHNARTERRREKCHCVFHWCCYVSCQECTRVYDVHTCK

[7] = target: T3, Sentrin-specific protease 8 (Homo sapiens, UniProt Q96LD8); test: inhibition of human SENP8 cleavage activity – biochemical, luminescence, SAR follow-up (AID 504501); assay type: functional
T3 sequence (Q96LD8 whole entry): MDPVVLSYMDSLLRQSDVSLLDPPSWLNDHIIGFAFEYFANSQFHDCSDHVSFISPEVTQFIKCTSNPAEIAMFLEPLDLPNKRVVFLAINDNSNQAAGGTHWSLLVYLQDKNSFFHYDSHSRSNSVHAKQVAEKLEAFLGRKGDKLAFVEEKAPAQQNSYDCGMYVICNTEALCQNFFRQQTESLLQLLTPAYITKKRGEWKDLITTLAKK

[8] = target: T4, Sentrin-specific protease 6 (Homo sapiens, UniProt Q9GZR1); test: SAR Analysis of small molecule inhibitors of Sentrin-specific protease 6 (SENP6) using a Luminescent assay. [Related pubchem assays (depositor defined):AID2582, AID2599]; assay type: functional
T4 sequence (Q9GZR1 whole entry): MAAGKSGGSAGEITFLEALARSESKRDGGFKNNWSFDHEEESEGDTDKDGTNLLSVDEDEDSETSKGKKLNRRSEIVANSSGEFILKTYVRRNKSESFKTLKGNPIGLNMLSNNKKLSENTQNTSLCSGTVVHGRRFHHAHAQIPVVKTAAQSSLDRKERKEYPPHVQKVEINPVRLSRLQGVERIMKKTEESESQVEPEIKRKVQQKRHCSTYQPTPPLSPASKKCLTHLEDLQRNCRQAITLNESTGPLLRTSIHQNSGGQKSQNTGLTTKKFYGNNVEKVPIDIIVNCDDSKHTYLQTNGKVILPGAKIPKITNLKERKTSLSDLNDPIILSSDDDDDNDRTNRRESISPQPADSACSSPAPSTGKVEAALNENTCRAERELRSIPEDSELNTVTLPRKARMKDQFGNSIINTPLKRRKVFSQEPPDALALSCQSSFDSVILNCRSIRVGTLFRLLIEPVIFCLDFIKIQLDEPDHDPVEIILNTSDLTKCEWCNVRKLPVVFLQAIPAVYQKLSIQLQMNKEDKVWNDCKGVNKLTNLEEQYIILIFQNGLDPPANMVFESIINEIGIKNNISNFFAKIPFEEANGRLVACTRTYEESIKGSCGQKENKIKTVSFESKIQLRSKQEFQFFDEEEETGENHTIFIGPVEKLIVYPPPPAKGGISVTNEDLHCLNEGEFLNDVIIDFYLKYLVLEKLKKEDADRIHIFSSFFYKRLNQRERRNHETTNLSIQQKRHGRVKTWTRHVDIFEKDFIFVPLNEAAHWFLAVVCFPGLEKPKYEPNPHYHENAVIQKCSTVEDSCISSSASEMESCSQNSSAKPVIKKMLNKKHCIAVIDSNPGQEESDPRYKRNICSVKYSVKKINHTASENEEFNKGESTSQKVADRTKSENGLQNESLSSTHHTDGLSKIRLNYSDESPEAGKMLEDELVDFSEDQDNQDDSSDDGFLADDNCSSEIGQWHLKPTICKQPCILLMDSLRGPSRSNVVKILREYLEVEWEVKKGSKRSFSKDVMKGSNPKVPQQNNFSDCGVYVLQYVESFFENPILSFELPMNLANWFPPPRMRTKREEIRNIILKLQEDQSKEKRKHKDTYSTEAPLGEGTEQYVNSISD

[9] = target: T5, Sentrin-specific protease 7 (Homo sapiens, UniProt Q9BQF6); test: inhibition of human SENP7 cleavage activity – biochemical, luminescence, SAR follow-up (AID 504497); assay type: functional
T5 sequence (Q9BQF6 whole entry): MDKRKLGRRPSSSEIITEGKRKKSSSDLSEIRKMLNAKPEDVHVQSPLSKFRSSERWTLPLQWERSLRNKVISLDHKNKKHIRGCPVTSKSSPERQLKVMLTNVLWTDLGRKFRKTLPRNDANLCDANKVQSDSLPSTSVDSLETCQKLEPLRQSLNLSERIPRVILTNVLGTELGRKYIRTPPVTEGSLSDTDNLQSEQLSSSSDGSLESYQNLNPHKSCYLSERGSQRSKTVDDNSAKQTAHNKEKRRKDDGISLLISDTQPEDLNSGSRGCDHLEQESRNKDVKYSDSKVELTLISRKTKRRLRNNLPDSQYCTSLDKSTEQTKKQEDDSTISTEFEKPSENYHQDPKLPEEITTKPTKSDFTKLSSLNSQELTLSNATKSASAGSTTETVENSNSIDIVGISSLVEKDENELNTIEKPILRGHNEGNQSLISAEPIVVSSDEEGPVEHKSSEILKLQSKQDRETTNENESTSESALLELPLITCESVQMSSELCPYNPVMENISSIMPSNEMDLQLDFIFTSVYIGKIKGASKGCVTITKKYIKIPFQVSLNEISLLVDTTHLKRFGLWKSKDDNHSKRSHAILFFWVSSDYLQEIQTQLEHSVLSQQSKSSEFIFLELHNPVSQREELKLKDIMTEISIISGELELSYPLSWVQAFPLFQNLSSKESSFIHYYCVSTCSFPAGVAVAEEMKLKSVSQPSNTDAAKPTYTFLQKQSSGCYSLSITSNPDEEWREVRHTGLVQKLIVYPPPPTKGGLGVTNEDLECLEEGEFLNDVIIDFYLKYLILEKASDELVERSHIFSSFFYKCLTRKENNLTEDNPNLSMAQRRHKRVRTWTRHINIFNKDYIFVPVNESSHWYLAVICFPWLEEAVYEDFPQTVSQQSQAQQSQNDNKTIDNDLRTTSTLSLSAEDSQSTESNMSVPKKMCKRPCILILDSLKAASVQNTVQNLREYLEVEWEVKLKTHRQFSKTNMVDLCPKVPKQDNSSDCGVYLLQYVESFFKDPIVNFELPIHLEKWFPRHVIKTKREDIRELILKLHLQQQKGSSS

Caspase-3 = target: T6, Caspase-3 (Homo sapiens, UniProt P42574); test: SAR Analysis of small molecule inhibitors of Sentrin-specific proteases (SENPs) using a Caspase-3 Selectivity assay. [Related pubchem assays (depositor defined):AID2540, AID2599, AID434973, AID489001]; assay type: functional
T6 sequence (P42574 whole entry): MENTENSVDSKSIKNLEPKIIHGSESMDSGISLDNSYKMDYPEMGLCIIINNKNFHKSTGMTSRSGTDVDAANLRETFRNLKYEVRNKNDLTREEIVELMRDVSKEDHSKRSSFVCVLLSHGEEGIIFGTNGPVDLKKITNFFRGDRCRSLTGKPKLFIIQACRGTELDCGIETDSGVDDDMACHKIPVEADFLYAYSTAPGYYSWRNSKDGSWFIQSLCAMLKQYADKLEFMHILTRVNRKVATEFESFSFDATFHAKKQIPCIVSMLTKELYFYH

[10] = target: Dual specificity tyrosine-phosphorylation-regulated kinase 1B (Homo sapiens, UniProt Q9Y463); test: Navigating the Kinome. Panel member name: DYRK1B; assay type: functional
Chain of Dual specificity tyrosine-phosphorylation-regulated kinase 1B (Q9Y463 whole entry): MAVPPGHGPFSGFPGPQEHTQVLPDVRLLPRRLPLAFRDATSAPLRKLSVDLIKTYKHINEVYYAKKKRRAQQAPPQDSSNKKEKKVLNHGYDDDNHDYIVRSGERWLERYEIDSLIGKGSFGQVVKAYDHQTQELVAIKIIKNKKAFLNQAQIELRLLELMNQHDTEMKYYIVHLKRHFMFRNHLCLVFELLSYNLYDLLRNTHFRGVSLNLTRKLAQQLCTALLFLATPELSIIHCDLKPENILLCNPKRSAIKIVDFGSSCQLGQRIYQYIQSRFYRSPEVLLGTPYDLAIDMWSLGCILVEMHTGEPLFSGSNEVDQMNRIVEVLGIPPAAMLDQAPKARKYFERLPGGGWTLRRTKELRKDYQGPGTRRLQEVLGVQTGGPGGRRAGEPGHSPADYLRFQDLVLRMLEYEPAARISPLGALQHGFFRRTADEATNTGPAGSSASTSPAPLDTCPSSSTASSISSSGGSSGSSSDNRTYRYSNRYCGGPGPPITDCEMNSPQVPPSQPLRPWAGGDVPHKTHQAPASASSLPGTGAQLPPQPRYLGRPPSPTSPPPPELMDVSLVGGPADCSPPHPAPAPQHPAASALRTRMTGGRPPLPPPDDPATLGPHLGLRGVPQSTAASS

[11] = target: Hepatocyte growth factor receptor (Homo sapiens, UniProt P08581); assay type: functional;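 note: kinase panel profiling across the kinome, with MET as the panel member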
Chain of Hepatocyte growth factor receptor (P08581 whole entry): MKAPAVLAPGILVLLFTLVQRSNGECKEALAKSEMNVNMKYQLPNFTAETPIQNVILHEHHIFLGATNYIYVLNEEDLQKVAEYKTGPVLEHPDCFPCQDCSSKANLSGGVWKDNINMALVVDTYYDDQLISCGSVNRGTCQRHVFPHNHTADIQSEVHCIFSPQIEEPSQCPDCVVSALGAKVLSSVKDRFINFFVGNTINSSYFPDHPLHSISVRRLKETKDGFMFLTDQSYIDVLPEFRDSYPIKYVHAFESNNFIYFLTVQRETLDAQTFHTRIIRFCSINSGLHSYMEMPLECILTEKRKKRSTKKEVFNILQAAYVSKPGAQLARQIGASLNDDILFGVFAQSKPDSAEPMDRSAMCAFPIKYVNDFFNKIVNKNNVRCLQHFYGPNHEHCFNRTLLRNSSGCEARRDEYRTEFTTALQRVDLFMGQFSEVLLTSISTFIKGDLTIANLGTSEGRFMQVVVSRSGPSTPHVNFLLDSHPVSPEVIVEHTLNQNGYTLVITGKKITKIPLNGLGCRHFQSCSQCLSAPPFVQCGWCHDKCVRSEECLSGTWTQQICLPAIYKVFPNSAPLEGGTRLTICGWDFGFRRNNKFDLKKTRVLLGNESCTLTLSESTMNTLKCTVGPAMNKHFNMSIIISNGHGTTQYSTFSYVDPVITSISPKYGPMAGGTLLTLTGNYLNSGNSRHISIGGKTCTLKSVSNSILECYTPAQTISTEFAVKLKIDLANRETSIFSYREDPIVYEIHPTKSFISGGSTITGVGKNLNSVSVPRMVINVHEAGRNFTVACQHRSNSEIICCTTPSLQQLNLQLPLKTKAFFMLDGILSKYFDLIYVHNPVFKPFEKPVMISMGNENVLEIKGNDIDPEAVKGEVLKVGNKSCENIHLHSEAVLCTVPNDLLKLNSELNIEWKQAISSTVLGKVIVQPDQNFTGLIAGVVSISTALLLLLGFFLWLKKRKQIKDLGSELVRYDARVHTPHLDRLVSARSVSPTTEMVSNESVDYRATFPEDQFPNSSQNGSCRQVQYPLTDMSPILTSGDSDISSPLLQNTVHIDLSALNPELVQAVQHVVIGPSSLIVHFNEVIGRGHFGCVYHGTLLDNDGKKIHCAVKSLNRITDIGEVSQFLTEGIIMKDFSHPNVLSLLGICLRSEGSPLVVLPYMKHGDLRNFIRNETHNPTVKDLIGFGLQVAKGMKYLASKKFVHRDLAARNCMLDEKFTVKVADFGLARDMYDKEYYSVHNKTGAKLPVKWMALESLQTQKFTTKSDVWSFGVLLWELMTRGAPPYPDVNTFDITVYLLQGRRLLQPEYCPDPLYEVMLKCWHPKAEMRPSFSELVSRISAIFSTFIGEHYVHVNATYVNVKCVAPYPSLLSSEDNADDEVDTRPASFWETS

[12] = target: Glycogen synthase kinase-3 beta (Homo sapiens, UniProt P49841); assay type: functional;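 note: value comes from a broad kinome profiling panel, with GSK3B as the panel member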
Chain of Glycogen synthase kinase-3 beta (P49841 whole entry): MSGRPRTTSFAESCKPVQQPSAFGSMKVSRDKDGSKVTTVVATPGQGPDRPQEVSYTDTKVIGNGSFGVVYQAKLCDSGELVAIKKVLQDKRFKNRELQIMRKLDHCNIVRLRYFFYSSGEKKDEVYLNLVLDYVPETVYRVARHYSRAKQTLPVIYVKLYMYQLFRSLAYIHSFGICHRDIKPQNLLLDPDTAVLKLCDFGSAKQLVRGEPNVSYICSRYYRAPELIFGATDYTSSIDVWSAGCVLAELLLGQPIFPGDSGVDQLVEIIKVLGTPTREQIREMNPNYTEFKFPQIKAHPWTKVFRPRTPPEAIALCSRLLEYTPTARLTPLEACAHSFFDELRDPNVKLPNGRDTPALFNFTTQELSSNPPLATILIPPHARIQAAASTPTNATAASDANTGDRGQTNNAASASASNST

[13] = target: T7, Serine/threonine-protein kinase Chk1 (Homo sapiens, UniProt O14757); assay type: functional;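 note: measured as one member of a kinome-wide kinase profiling panel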
T7 sequence (O14757 whole entry): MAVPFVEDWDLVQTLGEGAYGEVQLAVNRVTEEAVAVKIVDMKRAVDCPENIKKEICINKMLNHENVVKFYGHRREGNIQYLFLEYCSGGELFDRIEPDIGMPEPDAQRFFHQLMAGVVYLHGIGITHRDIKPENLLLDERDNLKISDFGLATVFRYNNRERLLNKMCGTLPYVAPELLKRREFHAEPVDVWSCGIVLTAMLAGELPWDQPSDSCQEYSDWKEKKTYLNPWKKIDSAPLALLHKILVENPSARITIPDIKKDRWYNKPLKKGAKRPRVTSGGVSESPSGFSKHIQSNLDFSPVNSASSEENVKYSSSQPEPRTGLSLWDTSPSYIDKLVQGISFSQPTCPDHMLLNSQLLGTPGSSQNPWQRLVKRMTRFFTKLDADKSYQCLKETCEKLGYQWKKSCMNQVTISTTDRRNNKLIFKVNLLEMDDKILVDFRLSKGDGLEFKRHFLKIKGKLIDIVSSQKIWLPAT

[14] = target: Dual specificity tyrosine-phosphorylation-regulated kinase 1A (Homo sapiens, UniProt Q13627); assay type: functional;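 note: measured against DYRK1A as one member of a broad kinome profiling panel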
LIM domain kinase 1 = LIM domain kinase 1 (Homo sapiens, UniProt P53667); test: Navigating the Kinome. Panel member name: LIMK1; assay type: functional
Chain of LIM domain kinase 1 (P53667 whole entry, the tested form may be a part): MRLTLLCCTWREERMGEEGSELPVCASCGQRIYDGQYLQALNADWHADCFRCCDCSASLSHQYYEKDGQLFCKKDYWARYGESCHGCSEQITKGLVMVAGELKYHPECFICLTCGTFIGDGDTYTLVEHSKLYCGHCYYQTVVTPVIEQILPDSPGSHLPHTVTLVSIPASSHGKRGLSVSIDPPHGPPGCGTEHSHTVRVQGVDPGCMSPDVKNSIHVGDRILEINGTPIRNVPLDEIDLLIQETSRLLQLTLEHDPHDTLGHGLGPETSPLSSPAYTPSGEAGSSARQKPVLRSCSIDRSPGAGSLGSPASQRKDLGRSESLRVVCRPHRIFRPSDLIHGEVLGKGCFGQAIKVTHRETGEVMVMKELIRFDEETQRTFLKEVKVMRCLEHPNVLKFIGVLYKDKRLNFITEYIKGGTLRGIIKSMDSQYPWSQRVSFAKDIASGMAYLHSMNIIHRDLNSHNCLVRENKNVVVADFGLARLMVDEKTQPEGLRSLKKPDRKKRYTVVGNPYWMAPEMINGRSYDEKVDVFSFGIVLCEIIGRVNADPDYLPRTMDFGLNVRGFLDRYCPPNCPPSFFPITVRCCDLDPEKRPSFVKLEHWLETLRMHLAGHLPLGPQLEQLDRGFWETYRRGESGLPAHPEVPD

[15] = target: Dual specificity protein kinase CLK4 (Homo sapiens, UniProt Q9HAZ1); assay type: functional
Chain of Dual specificity protein kinase CLK4 (Q9HAZ1 whole entry): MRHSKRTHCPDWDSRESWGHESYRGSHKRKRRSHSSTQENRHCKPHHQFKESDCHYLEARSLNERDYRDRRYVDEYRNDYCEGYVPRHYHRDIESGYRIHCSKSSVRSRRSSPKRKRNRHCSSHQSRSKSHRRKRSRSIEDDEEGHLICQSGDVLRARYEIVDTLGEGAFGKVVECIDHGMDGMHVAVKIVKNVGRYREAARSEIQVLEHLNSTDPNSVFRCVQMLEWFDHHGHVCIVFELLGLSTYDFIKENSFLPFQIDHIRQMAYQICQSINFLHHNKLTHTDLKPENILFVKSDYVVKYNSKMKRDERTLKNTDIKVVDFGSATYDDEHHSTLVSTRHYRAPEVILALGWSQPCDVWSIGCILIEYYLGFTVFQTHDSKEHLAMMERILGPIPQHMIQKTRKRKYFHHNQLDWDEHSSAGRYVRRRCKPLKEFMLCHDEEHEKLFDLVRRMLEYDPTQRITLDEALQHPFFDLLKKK

## CC(C)(C)C(=O)NC(=S)NNC(=O)C(c1ccccc1)c1ccccc1
[1]
  EC50: 1.2 µM (active)
[2]
  EC50: 5.35 µM (inconclusive)
[3]
  EC50: 1.06 µM (active)
[4]
  IC50: 4.01 µM (active)
[5]
  IC50: 6.48 µM (active)

## O=C(NC1CCCCC1)c1ccc(OC2CCN(Cc3ccccn3)CC2)cc1
[6]
  IC50: 8.43 µM (active)
[4]
  IC50: 0.891 µM (active)
[5]
  IC50: 1.65 µM (active)

## Cc1nnsc1C(=O)Nc1ccc(S(=O)(=O)N2CCC(C)CC2)cc1
Protein Wnt-3a
  IC50: 27.1 µM (inactive)

## O=C(Nc1nc2ccc(Cl)cc2s1)c1nn(-c2ccccc2)ccc1=O
[7]
  IC50: > 99 µM (inactive)
[8]
  IC50: > 99 µM (inactive)
[9]
  IC50: > 99 µM (inactive)
Caspase-3
  IC50: > 99 µM (inactive)

## COC(=O)c1csc2ccc(=O)[nH]c12
[10]
  Ki: 63.1 µM (active)
[11]
  Ki: 79.4 µM (active)
[12]
  Ki: 79.4 µM (active)
[13]
  Ki: 15.8 µM (active)
[14]
  Ki: 25.1 µM (active)
LIM domain kinase 1
  Ki: 15.8 µM (active)
[15]
  Ki: 12.6 µM (active)
